“And” between values parts separate entries of the source, which are not always exact repeats. Equal entries are not always repeated. No end group written: not given here. *: point of attachment. ClAc = O=C(CCl)*
These substances were tested on PSMD2.
Format: binding, human

Row | Substance | ELISA S/N | PSMD2 binding compared with MC3
1 | ClAc-FRRNVNWWRLYC (also: sidechain bridge or staple (positions not given here)) [hit 5] | > 30 | equivalent or better binding
2 | ClAc-FSALRHIAIFRYC (also: sidechain bridge or staple (positions not given here)) [hit 2] | > 30 | equivalent or better binding
3 | ClAc-FSRNAGFWARYC (also: sidechain bridge or staple (positions not given here)) [hit 3] | 49.0 and > 30 | equivalent or better binding

— paper PMC10278063 (ACS Chemical Biology, 2023)
